Data as given in patent US20250154525A1, “PLANT VIRUS MOVEMENT PROTEINS AND METHODS OF USING SAME” (Molecular Transfer, Inc., priority 2016, published 2025).

Assays:
some examined cell types = assay: Summary of Example 1: transfection expression and % cells transfected over the no peptide control; assay type: cell-based; details: on some examined cell types
In short: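 Cells at 70% confluence received DNA complexes of EF1Alpha eGFP plasmid with DOTMA/DOPE (1:1) plus oligo-Arg- or oligo-Lys-tagged peptide ligands, formed 10 min at room temperature. After 42 h at 37 °C, 5% CO2, GFP read by plate reader and % transfected cells judged microscopically, relative to lipid without peptide.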

Jurkat Cells = assay: GFP plasmid transfection with DOTMA/DOPE plus surface ligand peptide, fluorescent plate reader (Example 1); assay type: cell-based; details: DOTMA/DOPE + peptide linked to R12 or K16; EF1Alpha eGFP plasmid; 42 hours
In short: (§1)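 DOTMA/DOPE (1:1 molar) plus peptide bearing a poly-Arg or poly-Lys tag was complexed 10 min with EF1alpha eGFP plasmid in OptiMEM, then added to 70%-confluent cells (0.01 mL fibroblasts; 0.02 mL C2C12, Jurkat). After 42 h at 37 °C, GFP was read by plate reader and compared with DOTMA without ligand.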

HeLa Cells [1] = assay: as above; assay type: cell-based; details: DOTMA/DOPE + peptide linked to R12 or K16; EF1Alpha eGFP plasmid; 42 hours
HuVec Cells = assay: as above; assay type: cell-based; details: DOTMA/DOPE + peptide linked to R12 or K16; EF1Alpha eGFP plasmid; 42 hours
In short: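 HuVEC cells in 96 well plates at 70% confluence were transfected with EF1Alpha eGFP plasmid using a 1:1 molar DOTMA/DOPE lipid mixed with a surface ligand peptide carrying a covalently attached nucleic acid binding moiety. Complexes formed for 10 minutes, 0.01 mL went to each well, cells were incubated 42 hours at 37° C., and fluorescence was read on a plate reader.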

NL-1 iPS Cells = assay: as above; assay type: cell-based; details: DOTMA/DOPE + peptide linked to R12 or K16; EF1Alpha eGFP plasmid; 42 hours
Human Fibroblast Cells = assay: as above; assay type: cell-based; details: DOTMA/DOPE + peptide linked to R12 or K16; EF1Alpha eGFP plasmid; 42 hours
In short: as §1

C2C12 Cells = assay: as above; assay type: cell-based, mouse; details: DOTMA/DOPE + peptide linked to R12 or K16; EF1Alpha eGFP plasmid; 42 hours
In short: as §1

HeLa Cells [2] = assay: GFP transfection with DOTMA/SEQ ID NO: 72 (fusogenic peptide)/peptide compared with Lipofectamine 2000; assay type: cell-based
In short: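 DOTMA/DOPE (1:1 molar) lipid mixed with polyarginine- or polylysine-tagged cell-surface-ligand peptide, complexed 10 min with EF1alpha eGFP plasmid at 10 μg/mL in OptiMEM, fusogenic peptide at 0.1 mg/mL final; HeLa cells ~70% confluent given 0.01 mL complex. GFP read by fluorescence plate reader and microscopy (% cells transfected) after 42 h at 37° C; Lipofectamine 2000 as comparator.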

[3] = 0.1 μL of DOTMA/SEQ ID NO: 72/Peptide in well of a 96 well plate
[4] = 0.2 μL of DOTMA/SEQ ID NO: 72/Peptide in well of a 96 well plate
[5] = 0.3 μL of DOTMA/SEQ ID NO: 72/Peptide in well of a 96 well plate
[6] = 0.4 μL of DOTMA/SEQ ID NO: 72/Peptide in well of a 96 well plate

353 (KKQRFRHRNRKGYRSQ) [compound 353]
transfection expression and % cells transfected over the no peptide control (some examined cell types): increased transfection expression and the % cells transfected | Relative Fluorescence of Transfection of Jurkat Cells (RF) (Jurkat Cells): 11107 | Relative Fluorescence of Transfection of HeLa Cells (RF) (HeLa Cells [1]): 29119 | Relative Fluorescence of Transfection of HuVec Cells (RF) (HuVec Cells): 8772 | Relative Fluorescence of Transfection of NL-1 iPS Cells (RF) (NL-1 iPS Cells): 9248 | Relative Fluorescence of Transfection of Human Fibroblast Cells (RF) (Human Fibroblast Cells): 8653 | Relative Fluorescence of Transfection of C2C12 Cells (RF) (C2C12 Cells): 4291 | Relative Fluorescence DOTMA/SEQ ID NO: 72/Peptide, HeLa Cells (RF) (HeLa Cells [2]; [3]): 36315 | Relative Fluorescence DOTMA/SEQ ID NO: 72/Peptide, HeLa Cells (RF) (HeLa Cells [2]; [4]): 44772 | Relative Fluorescence DOTMA/SEQ ID NO: 72/Peptide, HeLa Cells (RF) (HeLa Cells [2]; [5]): 36882 | Relative Fluorescence DOTMA/SEQ ID NO: 72/Peptide, HeLa Cells (RF) (HeLa Cells [2]; [6]): 25802

452 (CNYYSNSYSFWLASLNPER) [compound 452]
transfection expression and % cells transfected over the no peptide control (some examined cell types): increased transfection expression and the % cells transfected | Relative Fluorescence of Transfection of Jurkat Cells (RF) (Jurkat Cells): 2554 | Relative Fluorescence of Transfection of HeLa Cells (RF) (HeLa Cells [1]): 13888 | Relative Fluorescence of Transfection of HuVec Cells (RF) (HuVec Cells): 1841 | Relative Fluorescence of Transfection of NL-1 iPS Cells (RF) (NL-1 iPS Cells): 10349 | Relative Fluorescence of Transfection of Human Fibroblast Cells (RF) (Human Fibroblast Cells): 2779 | Relative Fluorescence of Transfection of C2C12 Cells (RF) (C2C12 Cells): 21798 | Relative Fluorescence DOTMA/SEQ ID NO: 72/Peptide, HeLa Cells (RF) (HeLa Cells [2]; [3]): 6276 | Relative Fluorescence DOTMA/SEQ ID NO: 72/Peptide, HeLa Cells (RF) (HeLa Cells [2]; [4]): 12671 | Relative Fluorescence DOTMA/SEQ ID NO: 72/Peptide, HeLa Cells (RF) (HeLa Cells [2]; [5]): 12047 | Relative Fluorescence DOTMA/SEQ ID NO: 72/Peptide, HeLa Cells (RF) (HeLa Cells [2]; [6]): 10918

323 (HQQDLGTAGSCLRKFSTMFLF) [compound 323]
transfection expression and % cells transfected over the no peptide control (some examined cell types): increased transfection expression and the % cells transfected | Relative Fluorescence of Transfection of Jurkat Cells (RF) (Jurkat Cells): 2900 | Relative Fluorescence of Transfection of HeLa Cells (RF) (HeLa Cells [1]): 14067 | Relative Fluorescence of Transfection of HuVec Cells (RF) (HuVec Cells): 12815 | Relative Fluorescence of Transfection of NL-1 iPS Cells (RF) (NL-1 iPS Cells): 21694 | Relative Fluorescence of Transfection of Human Fibroblast Cells (RF) (Human Fibroblast Cells): 4826 | Relative Fluorescence of Transfection of C2C12 Cells (RF) (C2C12 Cells): 7698 | Relative Fluorescence DOTMA/SEQ ID NO: 72/Peptide, HeLa Cells (RF) (HeLa Cells [2]; [3]): 15537 | Relative Fluorescence DOTMA/SEQ ID NO: 72/Peptide, HeLa Cells (RF) (HeLa Cells [2]; [4]): 16620 | Relative Fluorescence DOTMA/SEQ ID NO: 72/Peptide, HeLa Cells (RF) (HeLa Cells [2]; [5]): 10839 | Relative Fluorescence DOTMA/SEQ ID NO: 72/Peptide, HeLa Cells (RF) (HeLa Cells [2]; [6]): 9244

268 (GGFLKYTVSYDI) [compound 268]
transfection expression and % cells transfected over the no peptide control (some examined cell types): increased transfection expression and the % cells transfected | Relative Fluorescence of Transfection of Jurkat Cells (RF) (Jurkat Cells): 3236 | Relative Fluorescence of Transfection of HeLa Cells (RF) (HeLa Cells [1]): 25885 | Relative Fluorescence of Transfection of HuVec Cells (RF) (HuVec Cells): 5403 | Relative Fluorescence of Transfection of NL-1 iPS Cells (RF) (NL-1 iPS Cells): 15697 | Relative Fluorescence of Transfection of Human Fibroblast Cells (RF) (Human Fibroblast Cells): 4568 | Relative Fluorescence of Transfection of C2C12 Cells (RF) (C2C12 Cells): 2568 | Relative Fluorescence DOTMA/SEQ ID NO: 72/Peptide, HeLa Cells (RF) (HeLa Cells [2]; [3]): 10162 | Relative Fluorescence DOTMA/SEQ ID NO: 72/Peptide, HeLa Cells (RF) (HeLa Cells [2]; [4]): 9934 | Relative Fluorescence DOTMA/SEQ ID NO: 72/Peptide, HeLa Cells (RF) (HeLa Cells [2]; [5]): 10792 | Relative Fluorescence DOTMA/SEQ ID NO: 72/Peptide, HeLa Cells (RF) (HeLa Cells [2]; [6]): 9519
